Measurements reported in article PMC4893804 (Journal of medicinal chemistry, 2015).
Like-named read-outs stand apart in the source and are kept apart here.

What was measured:
[1] = target: T1, Human DNA Pol α (Homo sapiens, UniProt P09884); assay: Enzyme assay with human DNA polymerase α; format: biochemical
T1 sequence (P09884 1-1462): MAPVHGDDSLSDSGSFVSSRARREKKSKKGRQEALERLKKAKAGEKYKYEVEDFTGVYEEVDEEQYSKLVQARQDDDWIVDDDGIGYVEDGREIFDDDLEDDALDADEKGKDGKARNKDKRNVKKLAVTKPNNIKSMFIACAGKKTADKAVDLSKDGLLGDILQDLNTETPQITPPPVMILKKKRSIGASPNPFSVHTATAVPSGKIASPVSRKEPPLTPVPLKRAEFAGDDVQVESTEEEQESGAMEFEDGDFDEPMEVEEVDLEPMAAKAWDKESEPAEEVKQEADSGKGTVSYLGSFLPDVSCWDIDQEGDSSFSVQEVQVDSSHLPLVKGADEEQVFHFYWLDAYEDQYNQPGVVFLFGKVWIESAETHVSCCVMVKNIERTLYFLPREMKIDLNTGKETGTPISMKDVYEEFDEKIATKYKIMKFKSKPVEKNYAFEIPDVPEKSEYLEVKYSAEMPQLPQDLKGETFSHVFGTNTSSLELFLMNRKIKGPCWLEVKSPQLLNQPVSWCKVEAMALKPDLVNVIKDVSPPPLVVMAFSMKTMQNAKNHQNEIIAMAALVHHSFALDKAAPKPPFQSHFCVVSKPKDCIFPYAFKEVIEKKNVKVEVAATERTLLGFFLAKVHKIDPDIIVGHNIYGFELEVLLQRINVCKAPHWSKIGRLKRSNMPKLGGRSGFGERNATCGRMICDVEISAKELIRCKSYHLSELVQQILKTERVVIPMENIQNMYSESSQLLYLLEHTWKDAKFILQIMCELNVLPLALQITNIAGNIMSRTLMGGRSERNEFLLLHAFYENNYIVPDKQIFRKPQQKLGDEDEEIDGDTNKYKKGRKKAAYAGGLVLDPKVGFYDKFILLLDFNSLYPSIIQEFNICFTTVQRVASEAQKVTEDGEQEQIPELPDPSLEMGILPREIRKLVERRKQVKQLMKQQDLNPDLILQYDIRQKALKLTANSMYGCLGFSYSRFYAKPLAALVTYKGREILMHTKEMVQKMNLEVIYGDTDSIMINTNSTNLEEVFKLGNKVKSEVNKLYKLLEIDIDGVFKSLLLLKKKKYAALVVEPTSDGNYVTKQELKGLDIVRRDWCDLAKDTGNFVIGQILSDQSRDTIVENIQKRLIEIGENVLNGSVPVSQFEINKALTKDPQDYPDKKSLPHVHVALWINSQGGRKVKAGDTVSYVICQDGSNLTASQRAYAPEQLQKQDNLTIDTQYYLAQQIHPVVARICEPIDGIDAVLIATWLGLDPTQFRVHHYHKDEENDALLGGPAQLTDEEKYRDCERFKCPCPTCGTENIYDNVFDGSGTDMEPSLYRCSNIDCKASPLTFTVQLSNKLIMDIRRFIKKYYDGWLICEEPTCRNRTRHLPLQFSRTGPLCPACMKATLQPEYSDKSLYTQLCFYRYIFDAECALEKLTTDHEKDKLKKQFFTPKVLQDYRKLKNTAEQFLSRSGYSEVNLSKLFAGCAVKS

[2] = target: VZV DNA polymerase (Varicella-zoster virus, UniProt P09252); assay: Enzyme assay with VZV DNA polymerase; format: biochemical
[3] = target: HCMV DNA polymerase (UL54) (Human cytomegalovirus, UniProt P08546); assay: Enzyme assay with HCMV DNA polymerase; format: biochemical; settings: for IC50: activated calf thymus DNA, [3H]dTTP; for superior activity against HCMV DNA polymerase compared to thymine-α-CNP: ratio vs thymine-α-CNP
[4] = target: HSV-1 DNA polymerase (Human herpesvirus 1, UniProt P04293); assay: Enzyme assay with HSV-1 DNA polymerase; format: biochemical
[5] = target: Human DNA Pol β (Homo sapiens, UniProt P06746); assay: Enzyme assay with human DNA polymerase β; format: biochemical
[6] = target: HIV-1 RT (Human immunodeficiency virus type 1 group M subtype B, UniProt P03366); assay: HIV-1 reverse transcriptase assay with homopolymeric template/primers; format: biochemical
[7] = target: M184I HIV-1 RT (Human immunodeficiency virus type 1 group M subtype B, UniProt P03366, M783I); assay: Mutant HIV-1 RT assay
[8] = target: Y115F HIV-1 RT (Human immunodeficiency virus type 1 group M subtype B, UniProt P03366, Y714F); assay: Mutant HIV-1 RT assay
[9] = read-out: IC50 Human DNA Pol α, activated calf thymus DNA, [3H]dTTP
[10] = read-out: IC50 VZV DNA Pol, poly dA.oligo dT, [3H]dTTP
[11] = read-out: IC50 HSV-1 DNA Pol, activated calf thymus DNA, [3H]dTTP
[12] = read-out: IC50 Human DNA Pol β, activated calf thymus DNA, [3H]dTTP
[13] = read-out: IC50 HIV-1 RT, poly rA.dT template/primer, [3H]dTTP
[14] = IC50 HIV-1 RT, poly rA.dT template/primer, [3H]dTTP
[15] = IC50 HIV-1 RT Poly rA.dT ([3H]dTTP), Table 7, Poly rA.dT, [3H]dTTP
[16] = IC50 HIV-1 RT Poly rC.dG ([3H]dGTP), Poly rC.dG, [3H]dGTP
[17] = IC50 HIV-1 RT Poly rI.dC ([3H]dCTP), Poly rI.dC, [3H]dCTP
[18] = IC50 HIV-1 RT Poly rU.dA ([3H]dATP), Poly rU.dA, [3H]dATP
[19] = IC50 Wild-type HIV-1 RT, Table 8, wild-type RT
[20] = read-out: IC50 HIV-1 RT Poly rA.dT ([3H]dTTP), Table 7, Poly rA.dT, [3H]dTTP
[21] = read-out: IC50 HIV-1 RT Poly rC.dG ([3H]dGTP), Poly rC.dG, [3H]dGTP
[22] = read-out: IC50 HIV-1 RT Poly rI.dC ([3H]dCTP), Poly rI.dC, [3H]dCTP
[23] = read-out: IC50 HIV-1 RT Poly rU.dA ([3H]dATP), Poly rU.dA, [3H]dATP

HSV-1 DNA polymerase, sequence (P04293 whole entry): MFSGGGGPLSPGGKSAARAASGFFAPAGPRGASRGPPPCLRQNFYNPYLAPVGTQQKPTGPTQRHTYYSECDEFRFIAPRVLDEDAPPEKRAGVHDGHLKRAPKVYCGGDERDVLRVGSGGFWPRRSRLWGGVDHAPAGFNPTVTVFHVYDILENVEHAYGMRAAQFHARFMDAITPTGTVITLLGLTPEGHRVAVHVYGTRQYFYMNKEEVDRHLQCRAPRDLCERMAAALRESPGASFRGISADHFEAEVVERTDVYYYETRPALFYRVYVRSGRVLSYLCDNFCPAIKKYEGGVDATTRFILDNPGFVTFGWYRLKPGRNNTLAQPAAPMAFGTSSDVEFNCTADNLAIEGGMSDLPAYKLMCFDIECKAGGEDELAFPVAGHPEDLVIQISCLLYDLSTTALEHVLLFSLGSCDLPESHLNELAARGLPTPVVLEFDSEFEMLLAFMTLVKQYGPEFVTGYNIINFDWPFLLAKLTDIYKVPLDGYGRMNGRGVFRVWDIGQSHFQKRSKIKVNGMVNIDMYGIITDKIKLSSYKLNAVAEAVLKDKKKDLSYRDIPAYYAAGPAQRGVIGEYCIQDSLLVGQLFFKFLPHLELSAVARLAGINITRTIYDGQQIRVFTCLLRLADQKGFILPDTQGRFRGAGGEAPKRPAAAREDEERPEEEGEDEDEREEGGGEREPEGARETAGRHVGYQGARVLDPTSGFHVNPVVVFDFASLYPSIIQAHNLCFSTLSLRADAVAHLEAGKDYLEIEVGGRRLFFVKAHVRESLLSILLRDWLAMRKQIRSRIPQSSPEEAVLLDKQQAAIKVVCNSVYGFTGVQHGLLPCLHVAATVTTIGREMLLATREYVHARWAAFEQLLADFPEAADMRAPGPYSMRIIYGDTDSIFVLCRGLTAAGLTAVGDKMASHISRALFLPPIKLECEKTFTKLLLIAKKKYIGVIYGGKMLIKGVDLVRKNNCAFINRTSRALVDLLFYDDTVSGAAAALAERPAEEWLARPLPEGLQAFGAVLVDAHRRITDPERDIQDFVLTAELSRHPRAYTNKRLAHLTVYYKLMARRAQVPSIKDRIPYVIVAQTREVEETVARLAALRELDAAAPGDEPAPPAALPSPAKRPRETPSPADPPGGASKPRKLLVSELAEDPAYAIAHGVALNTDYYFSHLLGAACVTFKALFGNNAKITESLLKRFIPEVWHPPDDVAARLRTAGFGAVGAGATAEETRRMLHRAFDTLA
VZV DNA polymerase, sequence (P09252 whole entry): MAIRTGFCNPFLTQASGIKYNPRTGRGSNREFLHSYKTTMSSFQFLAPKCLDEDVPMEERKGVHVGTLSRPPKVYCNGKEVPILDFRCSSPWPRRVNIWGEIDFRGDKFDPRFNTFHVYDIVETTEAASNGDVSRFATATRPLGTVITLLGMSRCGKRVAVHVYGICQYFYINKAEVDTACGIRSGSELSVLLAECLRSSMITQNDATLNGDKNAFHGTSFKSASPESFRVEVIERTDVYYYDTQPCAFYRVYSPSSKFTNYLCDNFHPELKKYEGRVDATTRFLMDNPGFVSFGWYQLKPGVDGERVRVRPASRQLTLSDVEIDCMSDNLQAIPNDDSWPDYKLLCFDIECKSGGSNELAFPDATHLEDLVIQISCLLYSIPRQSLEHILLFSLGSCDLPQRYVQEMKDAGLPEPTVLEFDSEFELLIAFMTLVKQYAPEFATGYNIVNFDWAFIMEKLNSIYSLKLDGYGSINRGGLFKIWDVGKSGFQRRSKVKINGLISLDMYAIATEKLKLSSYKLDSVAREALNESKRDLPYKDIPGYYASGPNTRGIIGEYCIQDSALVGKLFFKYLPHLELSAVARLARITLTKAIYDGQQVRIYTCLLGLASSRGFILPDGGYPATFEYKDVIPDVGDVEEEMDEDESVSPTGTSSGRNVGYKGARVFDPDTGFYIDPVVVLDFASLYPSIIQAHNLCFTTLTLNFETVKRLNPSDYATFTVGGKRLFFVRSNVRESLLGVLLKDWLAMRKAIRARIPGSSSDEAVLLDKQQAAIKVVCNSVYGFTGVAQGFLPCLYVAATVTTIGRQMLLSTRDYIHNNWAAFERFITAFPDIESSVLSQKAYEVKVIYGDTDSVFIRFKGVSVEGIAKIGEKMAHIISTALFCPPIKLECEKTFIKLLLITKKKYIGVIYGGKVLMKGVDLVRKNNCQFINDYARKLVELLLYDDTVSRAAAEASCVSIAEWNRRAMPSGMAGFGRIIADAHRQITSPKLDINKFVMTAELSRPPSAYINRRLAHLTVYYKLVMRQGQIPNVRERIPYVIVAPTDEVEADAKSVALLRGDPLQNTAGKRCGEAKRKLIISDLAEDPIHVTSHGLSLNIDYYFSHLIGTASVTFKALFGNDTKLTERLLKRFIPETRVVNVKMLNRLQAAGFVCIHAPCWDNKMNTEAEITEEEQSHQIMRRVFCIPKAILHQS
HCMV DNA polymerase (UL54), sequence (P08546 whole entry): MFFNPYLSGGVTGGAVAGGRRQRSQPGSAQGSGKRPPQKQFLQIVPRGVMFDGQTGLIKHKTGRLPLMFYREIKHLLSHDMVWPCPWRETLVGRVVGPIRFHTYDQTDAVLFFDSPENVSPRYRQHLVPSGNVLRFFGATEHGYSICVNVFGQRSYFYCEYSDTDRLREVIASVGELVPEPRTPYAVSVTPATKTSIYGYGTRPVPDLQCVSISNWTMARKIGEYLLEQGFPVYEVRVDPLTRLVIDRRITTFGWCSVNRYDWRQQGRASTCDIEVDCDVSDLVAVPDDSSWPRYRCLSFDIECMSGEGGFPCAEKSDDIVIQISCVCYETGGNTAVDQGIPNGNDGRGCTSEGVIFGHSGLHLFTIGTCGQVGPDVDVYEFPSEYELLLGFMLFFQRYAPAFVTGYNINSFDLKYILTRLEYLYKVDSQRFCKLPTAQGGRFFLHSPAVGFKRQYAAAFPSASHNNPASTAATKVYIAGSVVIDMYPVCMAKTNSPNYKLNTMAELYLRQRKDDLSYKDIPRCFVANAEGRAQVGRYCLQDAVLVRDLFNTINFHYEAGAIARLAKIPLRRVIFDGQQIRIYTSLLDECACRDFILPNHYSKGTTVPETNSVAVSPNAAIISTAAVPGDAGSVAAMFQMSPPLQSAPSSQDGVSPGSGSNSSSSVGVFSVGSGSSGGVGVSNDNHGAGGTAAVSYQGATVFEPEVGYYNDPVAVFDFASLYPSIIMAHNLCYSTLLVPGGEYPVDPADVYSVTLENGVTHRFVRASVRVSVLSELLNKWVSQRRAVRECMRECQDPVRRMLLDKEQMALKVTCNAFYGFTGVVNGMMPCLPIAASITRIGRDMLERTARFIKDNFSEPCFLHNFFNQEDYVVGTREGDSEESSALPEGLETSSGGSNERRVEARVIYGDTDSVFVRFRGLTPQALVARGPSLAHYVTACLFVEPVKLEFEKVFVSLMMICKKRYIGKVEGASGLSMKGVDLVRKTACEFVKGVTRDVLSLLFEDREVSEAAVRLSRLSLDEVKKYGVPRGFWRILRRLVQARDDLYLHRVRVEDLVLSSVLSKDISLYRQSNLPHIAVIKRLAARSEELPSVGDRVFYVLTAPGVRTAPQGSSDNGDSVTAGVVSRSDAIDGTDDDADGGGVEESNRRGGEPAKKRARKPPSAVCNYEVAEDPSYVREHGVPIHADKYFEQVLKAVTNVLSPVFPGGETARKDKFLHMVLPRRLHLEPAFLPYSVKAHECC

Row | Compound | IC50 [1, 9] [µM] | IC50 [2, 10] [µM] | IC50 ([3]; read-out: IC50 HCMV DNA Pol) [µM] | IC50 [4, 11] [µM] | IC50 [5, 12] [µM] | IC50 [6, 13] [µM] | IC50 [1] [µM] | IC50 [2] [µM] | IC50 ([3]; IC50 HCMV DNA Pol) [µM] | IC50 [4] [µM] | IC50 [5] [µM] | IC50 [6, 14] [µM] | further results
1 | Cc1cn(C[C@H]2CCC[C@H]2COC(C(=O)O)P(=O)(O)O)c(=O)[nH]c1=O (relative stereo) [Compound 6a] | 165 ± 100 | 73 ± 1 | 40 ± 25 | 14 ± 14 | > 500 | ≥ 500 | – | – | – | – | – | – | –
2 | Cc1cn(C[C@H]2C[C@H]2COC(C(=O)O)P(=O)(O)O)c(=O)[nH]c1=O (relative stereo) [Compound 6b] | 183 ± 8 | 12 ± 3 | 4.6 ± 0.2 | 36 ± 12 | 390 ± 127 | 440 ± 85 | – | – | – | – | – | – | superior activity against HCMV DNA polymerase compared to thymine-α-CNP [3]: 8- to 13 fold
3 | Cc1cn(C[C@H]2CC=CC[C@H]2COC(C(=O)O)P(=O)(O)O)c(=O)[nH]c1=O (relative stereo) [Compound 6c] | 48 ± 36 | 8.5 ± 2.1 | 3 ± 0.5 | 14 ± 3 | > 500 | 425 ± 106 | – | – | – | – | – | – | superior activity against HCMV DNA polymerase compared to thymine-α-CNP [3]: 8- to 13 fold
4 | Cc1cn(C[C@H]2CCCC[C@H]2COC(C(=O)O)P(=O)(O)O)c(=O)[nH]c1=O (relative stereo) [Compound 6e] | 69 ± 21 | 16 ± 1 | 4 | 8.6 ± 6.6 | > 500 | ≥ 500 | – | – | – | – | – | – | superior activity against HCMV DNA polymerase compared to thymine-α-CNP [3]: 8- to 13 fold
5 | O=c1[nH]c(=O)n([C@H]2C[C@H](O)[C@@H](COP(=O)(O)OP(=O)(O)OP(=O)(O)O)O2)cc1/C=C/Br [BVDU-TP, (E)-5-(2-Bromovinyl)-2′-deoxyuridine-5′-triphosphate, reference compound] | – | – | – | – | – | – | 21 ± 10 | 0.49 ± 0.09 | 3.6 ± 0.7 | 1.9 ± 0.9 | 26 ± 4 | 0.89 ± 0.4 | –
6 | Cc1cn(Cc2ccccc2COC(C(=O)O)P(=O)(O)O)c(=O)[nH]c1=O (stereo not shown) [Compound 6d, 2-(2-((2,4-Dioxo-5-methyl-pyrimidin-1-yl)methyl)benzyloxy)-2-phosphonoacetic acid] | – | – | – | – | – | – | 75 ± 18 | 2.9 ± 0.7 | – | 7.5 ± 5 | 76 ± 30 | 131 ± 86 | more active against VZV DNA polymerase than thymine-α-CNP ([2]; ratio vs thymine-α-CNP): 13 fold; superior activity against HCMV DNA polymerase compared to thymine-α-CNP [3]: ~ 3 fold; more active against HSV-1 DNA polymerase than thymine-α-CNP ([4]; ratio vs thymine-α-CNP): ~ 3 fold
7 | Cc1cn(Cc2cn(CCOC(C(=O)O)P(=O)(O)O)nn2)c(=O)[nH]c1=O (stereo not shown) [Compound 6f, 2-(2-(4-((5-methyl-2,4-dioxo-3,4-dihydropyrimidin-1(2H)-yl)methyl)-1H-1,2,3-triazol-1-yl)ethoxy)-2-phosphonoacetic acid] | – | – | – | – | – | – | 332 ± 28 | 24 ± 4 | 38 ± 6 | 25 ± 21 | 361 ± 160 | > 500 | –
8 | Cc1cn(CCCCOC(C(=O)O)P(=O)(O)O)c(=O)[nH]c1=O (stereo not shown) [Compound 6h, 2-(4-(2,4-Dioxo-5-methyl-pyrimidin-1-yl)butyloxy)-2-phosphonoacetic acid] | – | – | – | – | – | – | 301 ± 51 | 27 ± 12 | – | 45 ± 27 | 450 ± 105 | 145 ± 106 | –
9 | O=C(O)C(OC/C=C\Cn1cc(F)c(=O)[nH]c1=O)P(=O)(O)O (stereo not drawn) [Compound 6i, 2-Cis-(4-(5-fluoro-2,4-dioxo-3,4-dihydropyrimidin-1(2H)-yl)but-2-enyloxy)-2-phosphonoacetic acid] | – | – | – | – | – | – | 325 ± 4 | 27 ± 2 | 30 ± 16 | 24 ± 1 | > 500 | > 500 | –
10 | O=C(O)C(OCCCCn1cc(F)c(=O)[nH]c1=O)P(=O)(O)O (stereo not shown) [Compound 6j, 2-(4-(5-Fluoro-2,4-dioxo-3,4-dihydropyrimidin-1(2H)-yl)butoxy)-2-phosphonoacetic acid] | 72 ± 52 | 4.1 ± 0.9 | 9.4 ± 4.1 | 6.7 ± 4.6 | 306 ± 3 | 263 ± 69 | – | – | – | – | – | – | –
11 | Nc1ncnc2c1ncn2C/C=C\COC(C(=O)O)P(=O)(O)O (stereo not drawn) [Compound 6k, 2-Cis-(4-(6-amino-9H-purin-9-yl)but-2-enyloxy)-2-phosphonoacetic acid] | – | – | – | – | – | – | ≥ 500 | 3.3 ± 0.4 | 5.5 ± 2.1 | 2.7 ± 2 | 454 ± 28 | 404 ± 30 | IC50 [7]: ≥ 2500 µM; IC50 [8]: 630 ± 37 µM; IC50 [6, 15]: 404 ± 30 µM; IC50 [6, 16]: > 500 µM; IC50 [6, 17]: > 500 µM; IC50 [6, 18]: 40 ± 8 µM; IC50 [6, 19]: 531 ± 154 µM
12 | Nc1nc2c(ncn2C/C=C\COC(C(=O)O)P(=O)(O)O)c(=O)[nH]1 (stereo not drawn) [Compound 6l, 2-Cis-(4-(2-amino-6-oxo-1H-purin-9(6H)-yl)but-2-enyloxy)-2-phosphonoacetic acid] | – | – | – | – | – | – | 365 ± 91 | 2.9 | 3.6 ± 0.6 | 2.1 ± 2.3 | > 500 | ≥ 500 | IC50 [7]: > 1250 µM; IC50 [8]: ≥ 1250 µM; IC50 [6, 15]: ≥ 500 µM; IC50 [6, 16]: > 500 µM; IC50 [6, 17]: > 500 µM; IC50 [6, 18]: 369 ± 48 µM; IC50 [6, 19]: ≥ 1250 µM
13 | Nc1ncnc2c1ncn2[C@H]1CC[C@@H](COP(=O)(O)OP(=O)(O)OP(=O)(O)O)O1 [ddATP, reference compound] | – | – | – | – | – | – | – | – | – | – | – | – | IC50 [6, 15]: > 20 µM; IC50 [6, 16]: > 20 µM; IC50 [6, 17]: > 20 µM; IC50 [6, 18]: 0.46 ± 0.12 µM
14 | Nc1ccn([C@H]2CC[C@@H](COP(=O)(O)OP(=O)(O)OP(=O)(O)O)O2)c(=O)n1 [ddCTP, reference compound] | – | – | – | – | – | – | – | – | – | – | – | – | IC50 ([6]; IC50 HIV-1 RT Poly rA.dT ([3H]dTTP)): > 20 µM; IC50 ([6]; IC50 HIV-1 RT Poly rC.dG ([3H]dGTP)): > 20 µM; IC50 ([6]; IC50 HIV-1 RT Poly rI.dC ([3H]dCTP)): 3.1 ± 2.2 µM; IC50 ([6]; IC50 HIV-1 RT Poly rU.dA ([3H]dATP)): > 20 µM
15 | Nc1nc2c(ncn2[C@H]2CC[C@@H](COP(=O)(O)OP(=O)(O)OP(=O)(O)O)O2)c(=O)[nH]1 [ddGTP, reference compound] | – | – | – | – | – | – | – | – | – | – | – | – | IC50 [6, 20]: > 20 µM; IC50 [6, 21]: 0.26 ± 0.17 µM; IC50 [6, 22]: > 20 µM; IC50 [6, 23]: > 20 µM
16 | Cc1cn([C@H]2CC[C@@H](COP(=O)(O)OP(=O)(O)OP(=O)(O)O)O2)c(=O)[nH]c1=O [ddTTP, reference compound] | – | – | – | – | – | – | – | – | – | – | – | – | IC50 [6, 20]: 0.05 ± 0.01 µM; IC50 [6, 21]: > 20 µM; IC50 [6, 22]: > 20 µM; IC50 [6, 23]: > 20 µM
